Test results published in patent US4339580A, “Piperazinylalkoxyindanes and acid addition salts thereof” (Mitsubishi Chemical Industries, Limited, priority 1979, dated 1982).
Like-named read-outs stand apart in the source and are kept apart here.

Legend:
[1] = tested on: tail reaction induced by morphine; assay: anti-morphine activity (suppression of tail reaction induced by 20 mg/kg i.p. morphine); format: in vivo, ddy male mice; details: Mus musculus, read-out: ED50 anti-morphine activity
Experimental: (§1) As controls, chlorodiazepoxide which is known as an anti-anxiety agent or minor tranquilizer and a known Compound 40 were used. The results are summarized in terms of 50% effective dose (ED50, mg/kg P.O.) in Table 1 below.
(§2) The animals used were ddy male mice (weighing 20 to 22 g) and they were tested for anti-fighting and anti-morphine actions as indications of anti-anxiety action. The anti-fighting activity of the test compound was evaluated by its suppressing or taming effect against fighting which was developed by applying an electric shock (28 V-DC, 4-5 mA, 3 min.) through a grid to the foot of the animal [R. E. Tedeschi, D. H. Tedeschi, A. Mucha, L. Cook, P. A. Mattis, E. J. Fellows, J. Pharmacol. exp. Therap., 125, 28 (1959)] The anti-morphine activity was evaluated according to the method of Takagi et al. by the suppressing effect against a tail reaction induced by administration of 20 mg/kg i.p. of morphine [H. Takagi, T. Kamioka, S. Kobayashi, Y. Suzuki and K. Tachikawa, Japanese J. of Pharmacology, 66, 107 (1970)].

[2] = tested on: fighting developed by electric shock; assay: anti-fighting activity (suppressing or taming effect against electric foot shock induced fighting); format: in vivo, ddy male mice; details: Mus musculus, 0.05 h, read-out: ED50 taming effect
Experimental: as §1, §2

[3] = muscle relaxant action, traction test; format: in vivo, ddy male mice; details: Mus musculus, po, read-out: ED50 traction test
Experimental: as §1, §2
Muscle relaxant action was evaluated by a traction test [S. Courvoisier, R. Ducrot, L. Julou, "Psychotropic Drugs" Ed. by S. Garattini, V. Ghetti, p. 313 (Elsevier) 1957].

[4] = tested on: anti-fighting and anti-morphine actions; assay: anti-anxiety activity (anti-fighting and anti-morphine actions as indications); format: in vivo, ddy male mice; details: PO, mice; versus chlorodiazepoxide and Compound 40
Experimental: as §1, §2

[5] = LD50 (Litchfield-Wilcoxon method); details: mouse, in vivo, PO, mice
Experimental: as §2
The values for LD50 were calculated by the Litchfield-Wilcoxon method [J. T. Litchfield and F. Wilcoxon, J. Pharmacol. exp. Therap., 96, 99 (1949)].

[6] = PO, mice, morphine 20 mg/kg i.p.
[7] = PO, mice, electric shock 28 V-DC, 4-5 mA, 3 min.

| SMILES | ED50 [1, 6] | ED50 [2, 7] | ED50 [3] | anti-anxiety activities compared with controls [4] | LD50 [5] | ED50 ([1]; po) | ED50 ([2]; po) |
| --- | --- | --- | --- | --- | --- | --- | --- |
| Fc1cc2c(cc1OCCCN1CCN(c3cccc(Cl)c3)CC1)CCC2 [Compound 21, 6-fluoro-5-{3-[4-(3-chlorophenyl)-1-piperazinyl]propoxy}indane] | 13.8 mg/kg | 14.5 mg/kg | 88 mg/kg | superior to those of chlorodiazepoxide and Compound 40 | 1500 to 2000 mg/kg | – | – |
| CNC1=Nc2ccc(Cl)cc2C(c2ccccc2)=[N+]([O-])C1 [Chlorodiazepoxide, reference compound] | – | – | 8.3 mg/kg | – | 720 mg/kg | 13 mg/kg | 12.5 mg/kg |
| Fc1ccc(N2CCN(CCCOc3ccc4c(c3)CCC4)CC2)cc1 [Compound 4, 5-{3-[4-(4-fluorophenyl)-1-piperazinyl]propoxy}indane] | 6 mg/kg | 7.5 mg/kg | 28 mg/kg | superior to those of chlorodiazepoxide and Compound 40 | > 2000 mg/kg | – | – |
| Fc1ccc(N2CCN(CCCOc3cc4c(cc3F)CCC4)CC2)cc1 [Compound 19, 6-fluoro-5-{3-[4-(4-fluorophenyl)-1-piperazinyl]propoxy}indane] | 12.5 mg/kg | 1 mg/kg | 17.5 mg/kg | superior to those of chlorodiazepoxide and Compound 40 | > 2000 mg/kg | – | – |
| Fc1ccc(N2CCN(CCCCOc3ccc4c(c3)CCC4)CC2)cc1 [Compound 5, 5-{4-[4-(4-fluorophenyl)-1-piperazinyl]butoxy}indane] | 11.1 mg/kg | 12 mg/kg | 21.5 mg/kg | superior to those of chlorodiazepoxide and Compound 40 | > 1100 mg/kg | – | – |
| COc1cc2c(cc1OCCCN1CCN(c3ccc(F)cc3)CC1)CCC2 [Compound 30, 6-methoxy-5-{3-[4-(4-fluorophenyl)-1-piperazinyl]propoxy}indane] | 10.2 mg/kg | 13 mg/kg | 12.5 mg/kg | superior to those of chlorodiazepoxide and Compound 40 | > 1000 mg/kg | – | – |
| O=C(CCCN1CCN(c2ccc(F)cc2)CC1)c1ccc2c(c1)CCC2 [Compound 40, reference compound] | 15.5 mg/kg | 20 mg/kg | 57 mg/kg | – | 1000 to 1500 mg/kg | – | – |
| Clc1cccc(N2CCN(CCCOc3ccc4c(c3)CCC4)CC2)c1 [Compound 17] | 15.5 mg/kg | 12.6 mg/kg | 45 mg/kg | superior to those of chlorodiazepoxide and Compound 40 | > 2000 mg/kg | – | – |
| Cc1cc2c(cc1OCCCN1CCN(c3ccccc3)CC1)CCC2 [Compound 24, 6-methyl-5-[3-(4-phenyl-1-piperazinyl)propoxy]indane] | 16 mg/kg | 8.5 mg/kg | 46 mg/kg | superior to those of chlorodiazepoxide and Compound 40 | > 2000 mg/kg | – | – |
| Fc1cc2c(cc1OCCCN1CCN(c3ccccc3)CC1)CCC2 [Compound 18, 6-fluoro-5-[3-(4-phenyl-1-piperazinyl)propoxy]indane] | 10.6 mg/kg | 2.9 mg/kg | 14.5 mg/kg | superior to those of chlorodiazepoxide and Compound 40 | > 2000 mg/kg | – | – |
| c1ccc(N2CCN(CCCOc3ccc4c(c3)CCC4)CC2)cc1 [Compound 1, 5-[3-(4-phenyl-1-piperazinyl)propoxy]indane] | 6.3 mg/kg | 6.6 mg/kg | 14.1 mg/kg | superior to those of chlorodiazepoxide and Compound 40 | > 1500 mg/kg | – | – |
